Assay results as given in PMC6838683, “Discovery of Human Signaling Systems: Pairing Peptides to G Protein-Coupled Receptors” (Cell, 2019).
Where two headings read alike, the source gives them in different places. Positions of bridges follow the written chain, without caps; N, C: chain ends. Residues, ends and D or L forms follow the SMILES beside them.

Molecular target: GPR68 (Homo sapiens, UniProt Q15743)
Assay: GloSensor cAMP assay (Gs), allosteric operational model fitting
Assay type: cell-based
Parameters: expressed in transfected cells; host or cells: HEK293T, transient (PEI), co-transfected with GloSensor cAMP plasmid
Method: GPR68-mediated cAMP signaling was measured using GloSensor cAMP assays as published previously ([Huang et al., 2015], [Yu et al., 2019]) with modifications as indicated below. Calcium- and magnesium-free HBSS was supplemented with different organic buffer reagents for different pH solutions, 20 mM 2-(N-morpholino)ethanesulfonic acid (MES, Alfa Aesar) for pH 6.00 – 6.70, 20 mM 4-(2-hydroxyethyl)-1-piperazineethanesulfonic acid (HEPES, Fisher) for pH 6.80 – 8.20, and 20 mM (tris(hydroxymethyl)methylamino)propanesulfonic acid (TAPS) for pH 8.30 – 8.60. The phosphodiesterase (PDE) inhibitor Ro 20-1724 (10 μM final, Cayman Chemical) was included in pH buffers to eliminate potential effect of PDE […]. HEK293T cells were transfected with a modified polyethylenimine (PEI, Polysciences) transfection method ([Longo et al., 2013]). For a 15-cm dish of HEK293T cells with 25 mL growth medium, 8 μg receptor DNA and 8 μg GloSensor DNA (Promega) were mixed in 1 mL of Opti-MEM medium followed by addition of 80 μL PEI reagents. The mixture was added to cells after 20 min incubation at room temperature. Overnight transfected cells were plated in poly-L-lysine (Sigma) coated 384-well white clear bottom plates (Greiner Bio-One, #781098) using DMEM (Corning) + 1% dialyzed FBS (Omega Scientific) for at least 6 h (up to 24 h). Cells were removed of medium before receiving 20 μL/well of 3.5 mM luciferin (Goldbio) prepared in assay buffer (HBSS, 20 mM TAPS, pH 8.40, 10 μM Ro 20-1724) for 1 h at 37°C. Luciferin loading solutions were removed and premixed drug solutions at desired pH conditions were added to cells (25 μL/well). Luminescence was measured 25-30 min after drug application. Results were normalized (basal and maximum responses in the absence of modulator were set to be 0 and 100%) and pooled for analysis using GraphPad Prism.
All of the other parameters, including allosteric affinity cooperativity (α), allosteric modulator binding affinity KB, orthosteric agonist (protons) efficacy τA, system maximal response, and slope factor n were all globally shared for all datasets for each modulator. […] We therefore used an allosteric index, log(αβ/KB) ([Kenakin, 2017a]), which contains both allosteric binding affinity and cooperativity, to quantify the overall allosteric activity.

[1] = GPR68, pH 7.4, tested as PAM, data from resynthesized peptide, mean, SEM and n

GPR68, sequence (Q15743 whole entry): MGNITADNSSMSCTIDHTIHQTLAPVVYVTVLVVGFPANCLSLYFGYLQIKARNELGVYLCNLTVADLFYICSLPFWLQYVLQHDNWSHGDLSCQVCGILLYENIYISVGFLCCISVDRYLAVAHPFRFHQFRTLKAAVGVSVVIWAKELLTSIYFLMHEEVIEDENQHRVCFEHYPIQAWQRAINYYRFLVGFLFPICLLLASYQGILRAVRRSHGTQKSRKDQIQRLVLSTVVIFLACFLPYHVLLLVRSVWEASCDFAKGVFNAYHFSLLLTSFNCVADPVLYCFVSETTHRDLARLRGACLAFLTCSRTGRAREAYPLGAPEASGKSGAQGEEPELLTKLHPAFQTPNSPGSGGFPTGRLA

Row | Compound | EC50 [µM] | Emax, cAMP (fold over basal, pH 7.4) [1] [fold over basal] | EC50 (GPR68, pH 7.4, tested as PAM, data from resynthesized peptide, mean, SEM and n, read-out: pEC50, cAMP (fold over basal, pH 7.4) (converted)) [µM]
1 | CC(C)C[C@H](NC(=O)[C@@H]1CCCN1C(=O)[C@H](Cc1ccccc1)NC(=O)[C@H](C)NC(=O)[C@H](CCC(=O)O)NC(=O)[C@H](C)NC(=O)[C@H](CO)NC(=O)[C@H](CCC(=O)O)NC(=O)[C@H](CC(N)=O)NC(=O)[C@H](CCC(=O)O)NC(=O)[C@H](C)NC(=O)[C@@H](NC(=O)[C@H](CC(N)=O)NC(=O)[C@@H]1CCCN1C(=O)[C@H](Cc1ccc(O)cc1)NC(=O)[C@@H](NC(=O)[C@H](CCCCN)NC(=O)[C@@H](NC(=O)[C@@H]1CCCN1C(=O)[C@H](CCCNC(=N)N)NC(=O)[C@@H](N)CCCNC(=N)N)C(C)C)C(C)C)C(C)C)C(=O)N[C@@H](CCC(=O)O)C(=O)N[C@@H](Cc1ccccc1)C(=O)O [Corticotropin_(17-40)] (H-RRPVKVYPNVAENESAEAFPLEF-OH; N-terminus and C-terminus assumed) | 7.41 | 24.2 | 
2 | CC[C@H](C)[C@H](NC(=O)[C@H](CCCNC(=N)N)NC(=O)[C@H](C)NC(=O)CNC(=O)[C@H](CCCCN)NC(=O)[C@H](CCCNC(=N)N)NC(=O)[C@@H](NC(=O)[C@H](C)NC(=O)[C@@H]1CSSC[C@H](NC(=O)[C@H](CCSC)NC(=O)[C@@H]2CCCN2C(=O)[C@@H](NC(=O)[C@H](CCC(N)=O)NC(=O)CNC(=O)[C@@H](N)Cc2ccc(O)cc2)C(C)C)C(=O)N[C@@H](CC(=O)O)C(=O)N[C@@H](C)C(=O)NCC(=O)N[C@@H](CCC(=O)O)C(=O)N[C@@H](CCC(N)=O)C(=O)N1)C(C)C)C(N)=O [CART(42-89)_(9-28)] (H-YGQVPMCDAGEQCAVRKGARI-NH2; disulfide 7-13; N-terminus assumed) |  | 25.2 | 4.57
